Results: patent publication US20170073371A1, “ANTIMICROBIAL PEPTIDES” (ROBERT BOSCH GESELLSCHAFT FÜR MEDIZINISCHE FORSCHUNG MBH, priority 2012, published 2017)
Where no end group is shown, it is not given here.

Experiments:
[1] = test system: Bifidobacterium adolescentis; test: Antimicrobial radial diffusion assay (inhibition zone diameter); assay type: cell-based; conditions: for antimicrobial activity (diameter of inhibition zone): FIG. 1, radial diffusion
Experimental: (§1) The letters indicate the amino acids using the single-letter code. […] The diameter of the inhibition zones represents the antimicrobial activity; a diameter of 2.5 mm is the diameter of an empty punched well in an agar plate which contains only carrier fluid (negative control). The experiments were repeated at least three times, and the mean plus standard deviation is shown.
(§2) Antimicrobial radial diffusion assays for anaerobic bacteria were carried out as described previously (see Schröder et al.: “Reduction of disulfide bonds unmasks potent antimicrobial activity of human beta-defensin 1”, Nature, 469: 419-423 (2011)). In brief, the bacteria were anaerobically cultured (Oxoid AnaeroGen”, England) for 24 hours at 37° C. on Columbia agar plates, then inoculated into liquid trypticase soy broth (TSB) medium and cultured again for 24 hours. The bacterial cultures were then washed and diluted to an optical density (OD620 nm)=0.1, of which 150 μl was used for the effectiveness assay. Incubation occurred under anaerobic conditions in 10 ml 10 mM sodium phosphate having a pH of 7.4 with 0.3 mg/ml TSB pwder and 1% (w/v) low-EEO agarose (agarose with very low EEO value)(Appli-Chem) with 0 or 2 mM dithiothreitol (DTT, Sigma Aldrich), with 1 μg synthetic, oxidized hBD-1 (Peptide Institute, Japan) or synthetic peptides, for three hours. An overcoating gel having 6% (w/v) TSB powder, 1% agarose, and 10 mM sodium phosphate buffer (pH 7.4 or 5.7), with or without DTT, was placed onto the plates. After incubation for 48 hours at 37° C. the diameters of the inhibition zones were measured. The experiments were repeated at least three times.

Escherichia coli [2] = test: as above; assay type: cell-based; conditions: FIG. 1b, 1c
Experimental: as §1, §2

E. coli K12 = test: Radial diffusion assay, D- versus L-amino acid octapeptide (FIG. 3a); assay type: cell-based, Escherichia coli
Experimental: Antimicrobial radial diffusion assays for anaerobic bacteria were carried out as described previously (see Schröder et al.: “Reduction of disulfide bonds unmasks potent antimicrobial activity of human beta-defensin 1”, Nature, 469: 419-423 (2011)). In brief, the bacteria were anaerobically cultured (Oxoid AnaeroGen”, England) for 24 hours at 37° C. on Columbia agar plates, then inoculated into liquid trypticase soy broth (TSB) medium and cultured again for 24 hours. The bacterial cultures were then washed and diluted to an optical density (OD620 nm)=0.1, of which 150 μl was used for the effectiveness assay. Incubation occurred under anaerobic conditions in 10 ml 10 mM sodium phosphate having a pH of 7.4 with 0.3 mg/ml TSB pwder and 1% (w/v) low-EEO agarose (agarose with very low EEO value)(Appli-Chem) with 0 or 2 mM dithiothreitol (DTT, Sigma Aldrich), with 1 μg synthetic, oxidized hBD-1 (Peptide Institute, Japan) or synthetic peptides, for three hours. An overcoating gel having 6% (w/v) TSB powder, 1% agarose, and 10 mM sodium phosphate buffer (pH 7.4 or 5.7), with or without DTT, was placed onto the plates. After incubation for 48 hours at 37° C. the diameters of the inhibition zones were measured. The experiments were repeated at least three times. […]

[3] = test system: (opportunistic) pathogenic microorganisms; test: Flow cytometric antimicrobial assay (membrane depolarization), all tested pathogens; assay type: cell-based; conditions: 50 μg/ml; E. coli, S. aureus, C. albicans, B. fragilis; FIG. 2
Experimental: (§3) The following peptides were investigated: modified octapeptide (SEQ ID NO. 4), wild type octapeptide (SEQ ID NO. 1), alanine-mutated octapeptide (SEQ ID NO. 7), and a heptapeptide (SEQ ID NO. 8) (each 50 μg/ml) were tested in a flow cytometric antimicrobial effectiveness assay against Escherichia coli, Staphylococcus aureus, Candida albicans, and Bacteroides fragilis. The letters once again indicate the respective amino acids in the one-letter code. The experiments were repeated twice in double batches, and the mean plus standard deviation is shown;
(§4) Flow cytometric antimicrobial assays with which the membrane depolarization of the bacteria and fungi were measured were carried out as previously described (see Nuding et al., “A flow cytometric assay to monitor antimicrobial activity of defensins and cationic tissue extracts,” Journal of Microbiological Methods, 65: 335-380 (2006)).
(§5) In brief, 1.5×10^6 cells per ml were incubated in 1:6-diluted Schaedler medium at 37° C. with peptides at a final volume of 50 μl. The defensins were dissolved in 0.01% acetic acid and were added to the bacterial/fungal suspensions at the final concentrations indicated. Bacterial or fungal suspensions that had been incubated with solvent (0.01% acetic acid) served here as controls for viability. After 90 minutes the suspensions were incubated for 10 minutes with 1 mg/ml of the membrane-potential-sensitive dye DiBAC4(3) ([bis-(1,3-dibutylbarbiturate)trimethine oxanol]) (Invitrogen, USA). The suspensions were centrifuged, and sediments resuspended in […] phosphate-buffered saline. The percentage of depolarized fluorescing bacteria or fungi in the suspension was determined using a FACSCalibur flow cytometer (Becton-Dickinson, USA) utilizing Cell Quest software (Becton-Dickinson). The experiments were repeated twice, each in duplicate.

[4] = Reversed-phase HPLC analysis of hydrophobicity; assay type: physicochemical; conditions: data not shown
Experimental: For analysis by high performance liquid chromatography (HPLC), the octapeptides were mixed with 0.1% (v/v) trifluoracetic acid (TFA) and analyzed with an Agilent 1200 system (Agilent) and a Synergi reversed phase (RP) column (250×4.6 mm, 4 μm, Phenomenex, Germany).
In further experiments a reversed-phase HPLC analysis was carried out in order to investigate the hydrophobicity of the tested peptides (data not shown).

Bacteroides fragilis = test: Flow cytometric antimicrobial assay (membrane depolarization); assay type: cell-based; conditions: 50 μg/ml; FIG. 2
Experimental: as §3, §4, §5

Candida albicans = test: as above; assay type: cell-based; conditions: 50 μg/ml; FIG. 2
Experimental: as §3, §4, §5

Staphylococcus aureus = test: as above; assay type: cell-based; conditions: 50 μg/ml; FIG. 2
Experimental: as §3, §4, §5

Escherichia coli [5] = test: as above; assay type: cell-based; conditions: 50 μg/ml; FIG. 2
Experimental: as §3, §4, §5

[6] = test system: commensal bacteria of the human intestinal flora; test: Antimicrobial radial diffusion assay of human beta-defensins at pH 7.4 or 5.7, with or without DTT; assay type: cell-based
Experimental: as §2
In the present case hBD-1 and its antimicrobial activity have been further investigated. For this, the antimicrobial activity of the three human beta-defensins hBD-1, -2, and -3 with respect to commensal bacteria of the human intestinal flora were tested under standard conditions (pH 7.4) and slightly acidic conditions (pH 5.7); under both conditions, reducing conditions were also tested by adding 2 mM of the chemical reducing agent dithiothreitol (DTT) to the growth medium.

[7] = Schröder et al., Nature 469:419-423 (2011); cited from earlier work

Substance	antimicrobial activity (diameter of inhibition zone) [1]	antimicrobial activity (diameter of inhibition zone) (Escherichia coli [2])	effectiveness (depolarized bacteria or fungi) [3]	further results
RGKAKACK [Cys6 exchanged, octapeptide with Cys6 exchanged for alanine]	activity was greatly decreased	increased the antimicrobial activity	–	–
RGKAKCAK [Cys7 exchanged, octapeptide with Cys7 exchanged for alanine]	activity was greatly decreased	increased the antimicrobial activity	–	–
RGKAKCCK (not fully specified (some residues); cysteine pairing not given here; also: termini modified in some versions, not given here)	–	–	–	activity compared with the peptide made up of L-amino acids (E. coli K12): weaker activity; activity compared with the peptide made up of L-amino acids ([1]; FIG. 3b): elevated activity
RGKAKCCK [wild type octapeptide, octapeptide of the eight terminal amino acids of the carboxy terminus of hBD-1]	greater antimicrobial activity than the previously tested heptapeptide	also had antimicrobial activity	only marginal in most cases	–
ac-RGKAKCCK-NH2 (Ac-RGKAKCCK-NH2; cysteine pairing not given here) [modified octapeptide]	rose sharply	did not differ significantly by comparison with the wild type peptide	–	hydrophobicity (order of elution from RP column) [4]: highest hydrophobicity; activity (depolarized bacteria) (Bacteroides fragilis): but not with respect to Escherichia coli and Bacteroides fragilis; activity (depolarized fungi) (Candida albicans): outstanding activity; activity (depolarized bacteria) (Staphylococcus aureus): outstanding activity; activity (depolarized bacteria) (Escherichia coli [5]): but not with respect to Escherichia coli and Bacteroides fragilis
alanine-mutated octapeptide: alanine-mutated octapeptide; both cysteines exchanged (RGKAKAAK) [reference compound]	brought activity to a complete standstill	almost entirely shut down antimicrobial activity	only marginal in most cases	–
hBD-1: human beta-defensin 1, obtained from Peptide Institute Inc. (DHYNCVSSGGQCLYSACPIFTKIQGTCYRGKAKCCK; disulfide (positions not given here); UniProt P60022 33-68, looked up)	–	–	–	activation of antimicrobial activity by reduction ([6]; pH 5.7, 2 mM DTT, data not shown): activation was not observed; antimicrobial activity, effect of reduction ([6]; reducing conditions, 2 mM dithiothreitol (DTT) in growth medium, data not shown): became active by reduction; antimicrobial activity ([6]; standard conditions (pH 7.4), data not shown): largely inactive; antimicrobial activity under reducing conditions [7]: elevated antimicrobial activity
hBD-3: human beta-defensin, obtained from Peptide Institute Inc. (GIINTLQKYYCRVRGGRCAVLSCLPKEEQIGKCSTRGRKCCRRKK; ends and bridges not checked; cysteine pairing not given here; UniProt P81534 23-67, looked up)	–	–	–	antimicrobial activity compared with the other two defensins ([6]; in most cases, tested commensals): strongest activity
wild type heptapeptide: heptapeptide that represents the seven terminal amino acids of hBD-1 (GKAKCCK) [reference compound]	highest activity	–	only marginal in most cases	–
